Results reported in PubChem BioAssay (NCI).
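A five-concentration, 48-hour dose response in 96-well plates underlies each endpoint, interpolated linearly between surrounding concentrations. The concentration for full growth arrest is given as TGI.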

Experiments:
Experiment in all cases: growth of human tumour cells (NCI), 48 h
786-0 renal = test system: 786-0 renal
A498 renal = test system: A498 renal
A549 NSCLC = test system: A549 NSCLC
ACHN renal = test system: ACHN renal
BT-549 breast = test system: BT-549 breast
CAKI-1 renal = test system: CAKI-1 renal
CCRF-CEM leukemia = test system: CCRF-CEM leukemia
COLO 205 colon = test system: COLO 205 colon
DU-145 prostate = test system: DU-145 prostate
EKVX NSCLC = test system: EKVX NSCLC
HCC-2998 colon = test system: HCC-2998 colon
HCT-116 colon = test system: HCT-116 colon
HCT-15 colon = test system: HCT-15 colon
HL-60(TB) leukemia = test system: HL-60(TB) leukemia
HOP-62 NSCLC = test system: HOP-62 NSCLC
HOP-92 NSCLC = test system: HOP-92 NSCLC
HS 578T breast = test system: HS 578T breast
HT29 colon = test system: HT29 colon
IGROV1 ovarian = test system: IGROV1 ovarian
K-562 leukemia = test system: K-562 leukemia
KM12 colon = test system: KM12 colon
LOX IMVI melanoma = test system: LOX IMVI melanoma
M14 melanoma = test system: M14 melanoma
MALME-3M melanoma = test system: MALME-3M melanoma
MCF7 breast = test system: MCF7 breast
MDA-MB-231 breast = test system: MDA-MB-231 breast
MDA-MB-435 = test system: MDA-MB-435
MDA-N = test system: MDA-N
MOLT-4 leukemia = test system: MOLT-4 leukemia
NCI-H226 lung = test system: NCI-H226 lung
NCI-H23 lung = test system: NCI-H23 lung
NCI-H460 lung = test system: NCI-H460 lung
NCI-H522 lung = test system: NCI-H522 lung
NCI/ADR-RES ovarian = test system: NCI/ADR-RES ovarian
OVCAR-3 ovarian = test system: OVCAR-3 ovarian
OVCAR-4 ovarian = test system: OVCAR-4 ovarian
OVCAR-5 ovarian = test system: OVCAR-5 ovarian
OVCAR-8 ovarian = test system: OVCAR-8 ovarian
PC-3 prostate = test system: PC-3 prostate
RPMI-8226 leukemia = test system: RPMI-8226 leukemia
RXF 393 renal = test system: RXF 393 renal
SF-268 CNS = test system: SF-268 CNS
SF-295 CNS = test system: SF-295 CNS
SF-539 CNS = test system: SF-539 CNS
SK-MEL-2 melanoma = test system: SK-MEL-2 melanoma
SK-MEL-28 melanoma = test system: SK-MEL-28 melanoma
SK-MEL-5 melanoma = test system: SK-MEL-5 melanoma
SK-OV-3 ovarian = test system: SK-OV-3 ovarian
SN12C renal = test system: SN12C renal
SNB-19 CNS = test system: SNB-19 CNS
SNB-75 CNS = test system: SNB-75 CNS
SR leukemia = test system: SR leukemia
SW-620 colon = test system: SW-620 colon
T-47D breast = test system: T-47D breast
TK-10 renal = test system: TK-10 renal
U251 CNS = test system: U251 CNS
UACC-257 melanoma = test system: UACC-257 melanoma
UACC-62 melanoma = test system: UACC-62 melanoma
UO-31 renal = test system: UO-31 renal

Measured: TGI

CC(C)(C)OC(=O)N1CCC2(CC1)C(=O)NCN2c1ccccc1
> 100 µM: all assays above
